Source: patent US11208412B2 (DAEGU-GYEONGBUK MEDICAL INNOVATION FOUNDATION, priority 2017, dated 2021)

Columns and labels:
Test in all cases: Kinase selectivity, DiscoverX scanMAX Kinase assay panel (% control)
Type in all cases: binding
[1] = molecular target: T1, kinases of the scanMAX Kinase assay panel (Homo sapiens, UniProt O00238); details: BMPR1B; 1 uM
T1 construct: purchased DiscoverX Co. (contract measurement) scanMAX Kinase assay panel
Summary of the method: (§1)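 Each enzyme is treated with drug at 1 uM in DMSO, then signal is scaled between a positive control (0%) and DMSO (100%) to give % control. Kinases with % control under 35% are scored as inhibited.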

[2] = molecular target: T2, kinases of the scanMAX Kinase assay panel (Homo sapiens, UniProt P00533, L861Q); details: EGFR(L861Q); 1 uM
T2 construct: purchased DiscoverX Co. (contract measurement) scanMAX Kinase assay panel
T2 sequence (P00533 25-1210 L861Q): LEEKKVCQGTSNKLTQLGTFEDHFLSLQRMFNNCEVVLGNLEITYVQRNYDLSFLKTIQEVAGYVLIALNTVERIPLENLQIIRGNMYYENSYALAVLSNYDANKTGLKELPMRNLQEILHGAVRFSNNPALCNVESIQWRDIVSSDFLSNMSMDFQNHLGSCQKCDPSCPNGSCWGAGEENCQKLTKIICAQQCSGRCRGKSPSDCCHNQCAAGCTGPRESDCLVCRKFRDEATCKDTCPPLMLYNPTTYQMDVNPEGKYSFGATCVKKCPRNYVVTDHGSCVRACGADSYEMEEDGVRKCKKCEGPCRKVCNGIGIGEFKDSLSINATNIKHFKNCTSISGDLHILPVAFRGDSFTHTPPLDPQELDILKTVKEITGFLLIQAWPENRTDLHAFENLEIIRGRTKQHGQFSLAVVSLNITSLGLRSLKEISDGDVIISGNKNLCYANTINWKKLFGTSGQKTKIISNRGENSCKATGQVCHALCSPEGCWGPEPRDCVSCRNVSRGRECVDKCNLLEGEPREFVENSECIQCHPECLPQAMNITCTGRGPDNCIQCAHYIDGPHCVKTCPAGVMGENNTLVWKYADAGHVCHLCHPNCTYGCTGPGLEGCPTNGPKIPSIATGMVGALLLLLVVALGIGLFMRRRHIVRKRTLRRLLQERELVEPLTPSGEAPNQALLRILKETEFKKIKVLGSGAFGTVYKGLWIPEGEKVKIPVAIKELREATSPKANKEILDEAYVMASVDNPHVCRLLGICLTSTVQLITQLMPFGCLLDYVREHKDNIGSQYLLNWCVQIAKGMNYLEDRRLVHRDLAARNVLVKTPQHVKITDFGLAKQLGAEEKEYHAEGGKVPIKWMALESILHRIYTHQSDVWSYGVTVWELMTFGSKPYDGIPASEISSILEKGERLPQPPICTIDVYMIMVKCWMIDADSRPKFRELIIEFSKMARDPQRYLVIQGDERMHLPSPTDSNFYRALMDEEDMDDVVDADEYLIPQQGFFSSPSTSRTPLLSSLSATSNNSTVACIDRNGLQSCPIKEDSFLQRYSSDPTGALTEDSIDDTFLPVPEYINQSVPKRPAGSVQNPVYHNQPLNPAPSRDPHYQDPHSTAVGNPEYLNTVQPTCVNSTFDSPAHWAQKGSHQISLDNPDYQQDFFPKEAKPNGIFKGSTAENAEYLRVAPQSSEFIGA
Summary of the method: as §1

[3] = molecular target: T3, kinases of the scanMAX Kinase assay panel (Homo sapiens, UniProt P15056, V600E); details: BRAF(V600E); 1 uM
T3 construct: purchased DiscoverX Co. (contract measurement) scanMAX Kinase assay panel
T3 sequence (P15056 whole entry V600E): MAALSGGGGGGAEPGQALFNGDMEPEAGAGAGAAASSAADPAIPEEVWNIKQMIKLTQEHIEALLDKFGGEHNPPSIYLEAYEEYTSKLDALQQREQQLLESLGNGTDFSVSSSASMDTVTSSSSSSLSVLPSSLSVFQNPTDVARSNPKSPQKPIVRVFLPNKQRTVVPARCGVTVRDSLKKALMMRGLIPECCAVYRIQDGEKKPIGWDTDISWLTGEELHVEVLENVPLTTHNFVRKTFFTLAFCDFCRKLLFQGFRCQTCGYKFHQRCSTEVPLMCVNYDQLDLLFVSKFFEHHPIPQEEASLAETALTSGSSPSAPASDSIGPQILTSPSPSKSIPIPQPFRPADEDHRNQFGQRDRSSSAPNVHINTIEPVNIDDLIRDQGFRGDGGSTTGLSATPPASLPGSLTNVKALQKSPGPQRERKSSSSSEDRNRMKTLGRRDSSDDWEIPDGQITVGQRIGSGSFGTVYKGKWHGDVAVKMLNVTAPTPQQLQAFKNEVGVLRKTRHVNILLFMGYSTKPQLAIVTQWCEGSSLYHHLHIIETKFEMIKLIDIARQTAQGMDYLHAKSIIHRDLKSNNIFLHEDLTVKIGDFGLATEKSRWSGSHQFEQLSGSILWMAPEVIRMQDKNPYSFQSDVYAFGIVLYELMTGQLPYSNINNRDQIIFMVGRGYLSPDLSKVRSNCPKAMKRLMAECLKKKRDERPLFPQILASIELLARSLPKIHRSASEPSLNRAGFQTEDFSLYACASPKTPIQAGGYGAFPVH
Summary of the method: as §1

[4] = molecular target: T4, kinases of the scanMAX Kinase assay panel (Homo sapiens, UniProt P42681); details: kinase TXK; 1 uM in DMSO
T4 construct: purchased DiscoverX Co. (contract measurement) scanMAX Kinase assay panel
T4 sequence (P42681 1-527): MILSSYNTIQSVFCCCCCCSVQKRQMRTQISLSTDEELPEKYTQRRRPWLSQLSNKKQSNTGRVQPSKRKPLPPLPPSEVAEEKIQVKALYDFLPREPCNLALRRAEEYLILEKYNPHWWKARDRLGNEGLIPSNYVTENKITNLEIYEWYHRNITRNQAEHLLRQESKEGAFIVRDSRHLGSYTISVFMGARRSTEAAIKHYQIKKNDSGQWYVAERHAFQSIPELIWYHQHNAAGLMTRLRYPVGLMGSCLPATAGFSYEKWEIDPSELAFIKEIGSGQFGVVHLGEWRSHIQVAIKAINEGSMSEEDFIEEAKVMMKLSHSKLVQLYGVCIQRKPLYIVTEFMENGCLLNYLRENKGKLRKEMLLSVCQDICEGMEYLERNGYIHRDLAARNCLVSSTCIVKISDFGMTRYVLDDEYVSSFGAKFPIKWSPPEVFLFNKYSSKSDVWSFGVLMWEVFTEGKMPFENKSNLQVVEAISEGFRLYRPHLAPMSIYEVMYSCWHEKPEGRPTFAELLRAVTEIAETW
Summary of the method: as §1

[5] = molecular target: T5, kinases of the scanMAX Kinase assay panel (Homo sapiens, UniProt P49674); details: CSNK1E; 1 uM
T5 construct: purchased DiscoverX Co. (contract measurement) scanMAX Kinase assay panel
T5 sequence (P49674 whole entry): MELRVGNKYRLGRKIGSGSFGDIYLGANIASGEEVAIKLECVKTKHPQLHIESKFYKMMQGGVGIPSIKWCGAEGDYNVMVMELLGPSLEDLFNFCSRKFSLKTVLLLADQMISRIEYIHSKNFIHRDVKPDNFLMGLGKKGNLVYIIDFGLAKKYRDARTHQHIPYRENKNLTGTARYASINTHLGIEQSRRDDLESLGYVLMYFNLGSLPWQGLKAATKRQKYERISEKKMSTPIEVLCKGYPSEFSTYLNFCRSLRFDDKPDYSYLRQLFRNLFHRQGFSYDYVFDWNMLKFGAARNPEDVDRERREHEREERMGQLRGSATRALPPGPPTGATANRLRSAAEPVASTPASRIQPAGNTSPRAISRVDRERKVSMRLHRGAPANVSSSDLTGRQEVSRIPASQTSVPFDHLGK
Summary of the method: as §1

[6] = molecular target: T6, kinases of the scanMAX Kinase assay panel (Homo sapiens, UniProt Q08345); details: DDR1; 1 uM
T6 construct: purchased DiscoverX Co. (contract measurement) scanMAX Kinase assay panel
T6 sequence (Q08345 19-913): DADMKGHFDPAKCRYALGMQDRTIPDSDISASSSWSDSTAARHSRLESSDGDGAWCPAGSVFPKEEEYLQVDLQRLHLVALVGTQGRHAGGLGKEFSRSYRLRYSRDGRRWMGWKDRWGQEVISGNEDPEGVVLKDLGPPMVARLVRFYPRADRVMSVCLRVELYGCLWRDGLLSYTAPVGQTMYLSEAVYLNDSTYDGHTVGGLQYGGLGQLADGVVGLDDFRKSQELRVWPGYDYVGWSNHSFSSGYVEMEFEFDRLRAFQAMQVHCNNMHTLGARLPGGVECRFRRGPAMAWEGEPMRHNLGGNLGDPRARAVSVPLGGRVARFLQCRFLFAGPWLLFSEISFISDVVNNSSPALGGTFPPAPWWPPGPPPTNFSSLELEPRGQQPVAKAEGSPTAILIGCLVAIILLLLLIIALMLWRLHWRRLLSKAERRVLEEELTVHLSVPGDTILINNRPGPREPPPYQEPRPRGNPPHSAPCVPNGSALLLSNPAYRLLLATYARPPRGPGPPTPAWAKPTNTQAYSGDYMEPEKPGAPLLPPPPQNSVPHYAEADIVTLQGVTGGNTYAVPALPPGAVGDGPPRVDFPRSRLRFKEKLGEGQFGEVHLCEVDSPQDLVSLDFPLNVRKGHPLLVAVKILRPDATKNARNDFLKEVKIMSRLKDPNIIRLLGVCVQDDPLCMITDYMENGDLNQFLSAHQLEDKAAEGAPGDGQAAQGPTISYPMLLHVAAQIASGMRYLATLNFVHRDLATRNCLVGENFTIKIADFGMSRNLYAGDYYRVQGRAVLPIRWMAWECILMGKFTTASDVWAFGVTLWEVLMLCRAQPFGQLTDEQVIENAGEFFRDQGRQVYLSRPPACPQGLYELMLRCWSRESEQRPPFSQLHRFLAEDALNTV
Summary of the method: as §1

[7] = molecular target: T7, kinases of the scanMAX Kinase assay panel (Homo sapiens, UniProt Q15759); details: p38-beta; 1 uM
T7 construct: purchased DiscoverX Co. (contract measurement) scanMAX Kinase assay panel
T7 sequence (Q15759 whole entry): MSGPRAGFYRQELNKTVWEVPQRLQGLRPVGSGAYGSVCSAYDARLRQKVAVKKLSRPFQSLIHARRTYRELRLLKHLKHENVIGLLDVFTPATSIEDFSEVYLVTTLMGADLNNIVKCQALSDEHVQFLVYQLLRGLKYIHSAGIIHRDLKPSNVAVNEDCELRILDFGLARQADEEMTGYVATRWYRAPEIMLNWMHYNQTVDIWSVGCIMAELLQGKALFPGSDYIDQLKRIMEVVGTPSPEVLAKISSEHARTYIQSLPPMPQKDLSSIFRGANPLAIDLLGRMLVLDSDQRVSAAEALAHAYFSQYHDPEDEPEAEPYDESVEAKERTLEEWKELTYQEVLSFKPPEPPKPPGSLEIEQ
Summary of the method: as §1

[8] = molecular target: T8, kinases of the scanMAX Kinase assay panel (Homo sapiens, UniProt Q86YV6); details: MYLK4; 1 uM
T8 construct: purchased DiscoverX Co. (contract measurement) scanMAX Kinase assay panel
T8 sequence (Q86YV6 1-388): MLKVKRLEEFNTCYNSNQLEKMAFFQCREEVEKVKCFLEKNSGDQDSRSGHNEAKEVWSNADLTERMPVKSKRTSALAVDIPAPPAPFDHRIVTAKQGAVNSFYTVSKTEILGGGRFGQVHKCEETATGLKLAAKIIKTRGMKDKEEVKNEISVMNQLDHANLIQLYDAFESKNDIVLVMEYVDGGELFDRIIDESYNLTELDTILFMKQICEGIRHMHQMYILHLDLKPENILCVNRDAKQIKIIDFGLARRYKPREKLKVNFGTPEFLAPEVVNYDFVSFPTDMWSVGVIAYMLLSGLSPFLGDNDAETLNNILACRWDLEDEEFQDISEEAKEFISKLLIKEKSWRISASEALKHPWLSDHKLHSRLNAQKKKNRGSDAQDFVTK
Summary of the method: as §1

[9] = molecular target: T9, kinases of the scanMAX Kinase assay panel (Homo sapiens, UniProt Q8TD19); details: NEK9; 1 uM
T9 construct: purchased DiscoverX Co. (contract measurement) scanMAX Kinase assay panel
T9 sequence (Q8TD19 1-979): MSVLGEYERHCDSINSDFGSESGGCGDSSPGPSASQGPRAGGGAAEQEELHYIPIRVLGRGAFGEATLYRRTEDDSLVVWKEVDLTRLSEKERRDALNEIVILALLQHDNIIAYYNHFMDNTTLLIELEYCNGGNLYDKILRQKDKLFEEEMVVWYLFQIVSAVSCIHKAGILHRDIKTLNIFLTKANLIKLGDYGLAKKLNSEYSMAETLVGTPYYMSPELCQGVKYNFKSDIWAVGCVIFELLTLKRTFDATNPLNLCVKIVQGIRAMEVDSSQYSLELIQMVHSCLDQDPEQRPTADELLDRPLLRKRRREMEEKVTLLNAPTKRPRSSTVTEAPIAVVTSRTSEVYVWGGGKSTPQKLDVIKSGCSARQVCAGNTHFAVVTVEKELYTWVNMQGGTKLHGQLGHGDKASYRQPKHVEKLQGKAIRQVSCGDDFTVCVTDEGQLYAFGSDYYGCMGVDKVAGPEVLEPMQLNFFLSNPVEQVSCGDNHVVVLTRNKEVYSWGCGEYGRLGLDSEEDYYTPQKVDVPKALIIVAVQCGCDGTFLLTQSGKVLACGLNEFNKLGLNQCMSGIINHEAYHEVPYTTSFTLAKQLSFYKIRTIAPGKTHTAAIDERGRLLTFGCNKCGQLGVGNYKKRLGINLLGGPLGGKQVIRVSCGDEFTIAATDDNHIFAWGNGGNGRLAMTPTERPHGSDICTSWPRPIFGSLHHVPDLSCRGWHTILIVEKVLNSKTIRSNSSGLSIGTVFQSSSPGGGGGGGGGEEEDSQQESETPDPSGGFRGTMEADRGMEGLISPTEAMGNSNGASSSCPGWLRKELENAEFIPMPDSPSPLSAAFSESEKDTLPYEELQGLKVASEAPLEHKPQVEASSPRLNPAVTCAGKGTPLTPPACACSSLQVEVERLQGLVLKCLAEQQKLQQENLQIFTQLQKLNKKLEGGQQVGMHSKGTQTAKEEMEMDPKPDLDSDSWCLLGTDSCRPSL
Summary of the method: as §1

T1 sequence (O00238 14-502): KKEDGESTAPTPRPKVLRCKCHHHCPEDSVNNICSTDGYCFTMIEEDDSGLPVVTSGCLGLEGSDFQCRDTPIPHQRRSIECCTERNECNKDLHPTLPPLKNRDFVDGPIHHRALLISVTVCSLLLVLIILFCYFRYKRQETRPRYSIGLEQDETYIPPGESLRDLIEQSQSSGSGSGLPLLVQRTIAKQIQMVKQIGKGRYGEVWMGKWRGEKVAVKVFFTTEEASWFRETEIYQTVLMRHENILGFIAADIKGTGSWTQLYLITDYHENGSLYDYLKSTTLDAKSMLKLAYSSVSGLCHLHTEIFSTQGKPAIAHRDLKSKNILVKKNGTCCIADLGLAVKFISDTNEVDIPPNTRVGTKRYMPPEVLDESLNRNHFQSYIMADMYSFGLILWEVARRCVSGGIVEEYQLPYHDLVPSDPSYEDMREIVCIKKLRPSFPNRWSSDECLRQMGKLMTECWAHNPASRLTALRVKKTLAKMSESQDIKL

## CCNc1nc(Nc2ccc(C(=O)N3CCC(N4CCOCC4)CC3)cc2OC)nc2[nH]cc(C(F)(F)F)c12 [Example 104, (4-((4-(ethylamino)-5-(trifluoromethyl)-7H-pyrrolo[2,3-d]pyrimidine-2-yl)amino)-3-methoxyphenyl)(4-morpholinopiperidine-1-yl)methanone]
[1]
  remaining binding at 1 µM: 83%
[2]
  remaining binding at 1 µM: 99%
[3]
  remaining binding at 1 µM: 100%
[4]
  remaining binding at 1 µM: 100%
[5]
  remaining binding at 1 µM: 4.2%
[6]
  remaining binding at 1 µM: 100%
[7]
  remaining binding at 1 µM: 100%
[8]
  remaining binding at 1 µM: 89%
[9]
  remaining binding at 1 µM: 99%

## CNc1nc(Nc2ccc(C(=O)N3CCOCC3)cc2OC)nc2[nH]cc(C#N)c12 [Example 1, 2-((2-methoxy-4-(morpholine-4-carbonyl)phenyl)amino)-4-(methylamino)-7H-pyrrolo[2,3-d]pyrimidine-5-carbonitrile]
[1]
  remaining binding at 1 µM: 98%
[2]
  remaining binding at 1 µM: 100%
[3]
  remaining binding at 1 µM: 95%
[4]
  remaining binding at 1 µM: 100%
[5]
  remaining binding at 1 µM: 12%
[6]
  remaining binding at 1 µM: 94%
[7]
  remaining binding at 1 µM: 98%
[8]
  remaining binding at 1 µM: 90%
[9]
  remaining binding at 1 µM: 100%

## CC1(Nc2nc(Nc3cnn([C@H]4CCN(C5COC5)C[C@@H]4F)c3Cl)nc3[nH]cc(C#N)c23)CC1 [Example 52, 2-((5-chloro-1-((3S,4S)-3-fluoro-1-(oxetane-3-yl)piperidine-4-yl)-1H-pyrazole-4-yl)amino)((1-methylcyclopropyl)amino)-7H-pyrrolo[2,3-d]pyrimidine-5-carbonitrile]
[1]
  remaining binding at 1 µM: 22%
[2]
  remaining binding at 1 µM: 53%
[3]
  remaining binding at 1 µM: 100%
[4]
  remaining binding at 1 µM: 40%
[5]
  remaining binding at 1 µM: 0.15%
[6]
  remaining binding at 1 µM: 50%
[7]
  remaining binding at 1 µM: 92%
[8]
  remaining binding at 1 µM: 82%
[9]
  remaining binding at 1 µM: 73%
